The source of these data is patent publication US7892777B2, “Methods for measuring whether a treatment affects RPTP-κ activity” (The Regents Of The University Of Michigan, priority 2007, dated 2011).

For one experiment, the system named is EGFR. Nature of the experiment: EGFR tyrosine phosphorylation (EGFR activation) in primary human keratinocytes. The format is cell-based. The following applies: human primary keratinocytes treated before UV irradiation (extracts: 16 hours, 50 mJ/cm2, 30 minutes post irradiation). Here is the method:
With reference to FIG. 3, UV-induced EGFR tyrosine phosphorylation is shown to be ligand-independent and mediated by oxidative inhibition of RPTP-κ in primary human keratinocytes. Shown in panel A, primary human keratinocytes were treated with control IgG1 or EGFR antibody LA1 (1 μg/mL), which blocks ligand binding, as indicated. Cells were then treated with vehicle (CTRL), or EGF (10 ng/mL) for 10 min, or UV irradiated (50 mJ/cm^2) and harvested 15 min post irradiation. Whole cell lysates were subjected to Western analysis for total EGFR and tyrosine-phosphorylated EGFR. Levels of immunoreactive EGFR were quantified by chemifluorescent detection. Results are mean±S.E. of three independent experiments; *, p<0.05. […] Shown in panel B, human keratinocytes were UV-irradiated (50 mJ/cm^2), and whole cell lysates were prepared at the indicated times. RPTP-κ and β-actin (internal control) were detected by Western blot, and quantified by chemifluorescent detection. Results are mean±S.E. of three independent experiments; *, p<0.05. […] Shown in panel C, primary human keratinocytes were mock (No UV) or UV irradiated (50 mJ/cm^2), and whole cell lysates were prepared 5 min post-UV irradiation. RPTP-κ was immunoprecipitated, and phosphatase activity was determined using a tyrosine-phosphorylated EGFR peptide as substrate. Phosphatase activity was normalized to RPTP-κ protein content in the immunoprecipitates, which was quantified by Western analysis using chemifluorescent detection. Results are mean±S.E. of three independent experiments; *, p<0.05. […] Endogenous RPTP-κ was immunoprecipitated, and assayed for activity in buffer containing dithiothreitol to reduce oxidized RPTP-κ to restore enzymatic activity, using a tyrosine-phosphorylated EGFR peptide as substrate. Results are mean±S.E. of three independent experiments; *, p<0.05. Shown in panel E, RPTP-κ was immunoprecipitated from mock or UV-irradiated human keratinocytes, and the immunoprecipitates were treated with DTT to reduce oxidized RPTP-κ, as described above for panel C. Reduced RPTP-κ was irreversibly oxidized by pervanadate, and oxidized (OX-PTP) and total RPTP-κ were detected by Western blot, using specific antibodies. Results are mean±S.E. of three independent experiments; *, p<0.05.
With reference to FIG. 4, knockdown of RPTP-κ is shown to increase EGFR tyrosine phosphorylation in primary human keratinocytes. Shown in panel A, human keratinocytes were transfected with scrambled control (CTRL) or RPTP-κ siRNA. Two days post-transfection, whole cell lysates were prepared and analyzed for RPTP-κ and β-actin (internal control) proteins by Western blot. Results are mean±S.E. of three independent experiments; *, p<0.05. […] Shown in panel B, two days after transfection with control (CTRL) or RPTP-κ siRNA, keratinocytes were UV irradiated (50 mJ/cm2). Whole cell lysates were prepared 15 min post-UV irradiation and analyzed for total EGFR and tyrosine-phosphorylated EGFR Western blot. Results are mean±S.E. of three independent experiments; *, p<0.05. […] Shown in panel C, keratinocytes were transfected with control (CTRL) or RPTP-κ siRNA and treated with control IgG or neutralizing anti-EGFR antibody. Two days post-transfection, whole cell lysates were prepared and total and tyrosine-phosphorylated EGFR were quantified by ELISA. Results are mean±S.E. of three independent experiments; *, p<0.05.
With reference to FIG. 7, primary adult human keratinocytes were treated with Laminaria japonica extract (LJE) or Porphyra haitanensis extract (PHE) for 16 hours prior to exposure to ultraviolet (UV) irradiation (50 mJ/cm2). Cells were analyzed for phosphorylated epidermal growth factor receptor (EGFR) and total EGFR by Western analyses 30 minutes post irradiation. […]

For experiment [1], the target named is RPTP-κ glutathione S-transferase fusion protein (Homo sapiens, UniProt Q15262). As to conditions: 100 μM H2O2, room temperature 30 min; FIG. 1A.
The target of a further experiment is purified EGFR (Homo sapiens, UniProt P00533). The following applies: EGFR with EGF and ATP/Mg2+, H2O2 at room temperature 30 min; FIG. 1B.
Another experiment addresses RPTP-κ and EGFR (Homo sapiens, UniProt Q15262). As to conditions: purified RPTP-κ and EGFR together, H2O2 100 μM, room temperature 30 min; FIG. 1C.

purified EGFR, sequence (P00533 25-1210): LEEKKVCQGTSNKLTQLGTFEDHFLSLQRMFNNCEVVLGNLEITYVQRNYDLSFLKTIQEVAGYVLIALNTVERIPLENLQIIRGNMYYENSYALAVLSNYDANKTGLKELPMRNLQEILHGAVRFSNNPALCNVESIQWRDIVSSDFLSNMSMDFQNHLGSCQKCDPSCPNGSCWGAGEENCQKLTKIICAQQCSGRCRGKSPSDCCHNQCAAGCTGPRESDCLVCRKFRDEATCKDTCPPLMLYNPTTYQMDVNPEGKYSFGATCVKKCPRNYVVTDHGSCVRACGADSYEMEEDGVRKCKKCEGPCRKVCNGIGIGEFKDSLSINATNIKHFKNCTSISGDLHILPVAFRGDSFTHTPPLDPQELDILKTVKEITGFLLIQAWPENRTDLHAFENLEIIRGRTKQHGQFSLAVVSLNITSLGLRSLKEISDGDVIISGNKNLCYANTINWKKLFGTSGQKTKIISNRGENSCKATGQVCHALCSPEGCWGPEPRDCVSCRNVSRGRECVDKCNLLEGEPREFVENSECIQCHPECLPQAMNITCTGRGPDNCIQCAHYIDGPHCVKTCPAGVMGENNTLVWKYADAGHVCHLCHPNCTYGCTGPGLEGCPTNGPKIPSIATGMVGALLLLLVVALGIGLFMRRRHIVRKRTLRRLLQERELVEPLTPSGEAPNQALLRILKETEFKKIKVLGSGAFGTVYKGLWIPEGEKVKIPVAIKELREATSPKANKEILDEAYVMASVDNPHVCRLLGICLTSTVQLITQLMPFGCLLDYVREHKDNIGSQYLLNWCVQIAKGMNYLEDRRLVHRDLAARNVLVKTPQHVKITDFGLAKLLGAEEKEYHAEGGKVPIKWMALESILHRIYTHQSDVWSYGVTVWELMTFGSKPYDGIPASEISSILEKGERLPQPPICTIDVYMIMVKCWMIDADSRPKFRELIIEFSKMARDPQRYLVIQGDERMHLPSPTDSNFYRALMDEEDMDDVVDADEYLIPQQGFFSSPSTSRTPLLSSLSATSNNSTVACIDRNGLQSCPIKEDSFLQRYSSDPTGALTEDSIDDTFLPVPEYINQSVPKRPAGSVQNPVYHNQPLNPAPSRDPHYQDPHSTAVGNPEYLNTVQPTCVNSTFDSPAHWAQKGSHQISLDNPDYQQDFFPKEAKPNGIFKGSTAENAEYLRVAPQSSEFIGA
RPTP-κ glutathione S-transferase fusion protein, sequence (Q15262 775-1439 limits assumed): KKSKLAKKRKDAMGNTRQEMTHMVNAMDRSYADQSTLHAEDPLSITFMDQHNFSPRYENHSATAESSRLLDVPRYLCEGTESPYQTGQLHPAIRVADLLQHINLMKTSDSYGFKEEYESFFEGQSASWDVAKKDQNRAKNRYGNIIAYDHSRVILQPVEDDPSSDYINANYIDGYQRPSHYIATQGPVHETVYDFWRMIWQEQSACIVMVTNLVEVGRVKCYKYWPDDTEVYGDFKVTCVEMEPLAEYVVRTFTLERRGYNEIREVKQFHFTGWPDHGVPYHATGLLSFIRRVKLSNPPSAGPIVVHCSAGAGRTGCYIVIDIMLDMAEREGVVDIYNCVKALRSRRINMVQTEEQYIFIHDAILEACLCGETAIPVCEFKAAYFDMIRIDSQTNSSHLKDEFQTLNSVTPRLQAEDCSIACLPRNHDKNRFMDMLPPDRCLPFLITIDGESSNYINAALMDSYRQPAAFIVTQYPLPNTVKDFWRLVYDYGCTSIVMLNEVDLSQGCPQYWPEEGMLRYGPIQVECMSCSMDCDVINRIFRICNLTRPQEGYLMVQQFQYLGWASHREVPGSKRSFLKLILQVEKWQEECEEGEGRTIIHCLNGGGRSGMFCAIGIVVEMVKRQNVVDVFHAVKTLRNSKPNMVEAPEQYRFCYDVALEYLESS
RPTP-κ and EGFR, sequence (Q15262 775-1439 limits assumed): as above

Consider `COC1=C(OC)C(=O)C(CCCCCCCCCC[P+](c2ccccc2)(c2ccccc2)c2ccccc2)=C(C)C1=O` [Mito Q10], for which the “UV irradiation-induced EGFR activation” value in the experiment on EGFR is given as “no effect”.

In the case of `O=C(/C=C/c1ccc(O)c(O)c1)OCCc1ccccc1` [CAPE, Caffeic acid phenethyl ester], in the experiment with EGFR, the “UV irradiation-induced EGFR activation” value was “no effect”.

Consider `Oc1ccc(C=Cc2cc(O)cc(O)c2)cc1` [Resveratrol], for which the figures for the “UV irradiation-induced EGFR activation” value with EGFR and with EGFR (listed as resveratrol) were “no effect” and “did not exhibit activity”, respectively.

As for `OO` [H2O2, hydrogen peroxide], the “loss of RPTP-κ activity” value in experiment [1] came out at 80%. Further, on purified EGFR, the “effect on tyrosine phosphorylation of purified EGFR” value is “no direct effect”. Besides, the EGFR tyrosine phosphorylation entry at RPTP-κ and EGFR is recorded as “increased to the level observed in the absence of RPTP-κ”.

On to `CC1=C(C)C(=O)C(CC[C@](C)(O)CCC[C@H](C)CCC[C@H](C)CCCC(C)C)=C(C)C1=O` [Tocopherylquinone, d-alpha], for which the “UV irradiation-induced EGFR activation” value in the experiment with EGFR is “no effect”.

Turning to `CC1=NN(c2ccccc2)C(=O)C1` [MCI-186, 3-Methyl-1-phenyl-2-pyrazolin-5-one], the “UV irradiation-induced EGFR activation” value in the experiment on EGFR is recorded as “no effect”.

Turning to `CC(=O)N[C@@H](CS)C(=O)O` [N-Acetyl cysteine], the “UV irradiation-induced EGFR activation” value with EGFR is “no effect”.
